Assay results: patent US11999727B2 (Tango Therapeutics, Inc., priority 2020, dated 2024)
Like-named read-outs stand apart in the source and are kept apart here.

Experiments:
[1] = test system: HAP1 MTAP-intact cell line; test: SDMA in-cell western assay, HAP1 MTAP-intact; format: cell-based; settings: Homo sapiens
Description: (§1) Table 1 also indicates IC50 values in an MTAP-isogenic cell line pair for exemplary compounds in an SDMA in-cell western assay (columns 7-8). HAP1 MTAP-intact is a cell line in which endogenous levels of MTAP are expressed, and HAP1 MTAP-deleted is an MTAP-null cell line.

[2] = test system: HAP1 MTAP-deleted cell line; test: SDMA in-cell western assay, HAP1 MTAP-deleted; format: cell-based; settings: for IC50: Homo sapiens; for MTAP intact/deleted ratio: SDMA in-cell western
Description: as §1

PRMT5 [3] = molecular target: T1, PRMT5 (Homo sapiens, UniProt O14744); test: PRMT5 biochemical IC50 assay with SAM as cofactor
T1 construct: purchased Viva (custom protein)

PRMT5 [4] = molecular target: T1, PRMT5; test: PRMT5 biochemical IC50 assay with MTA as cofactor
[5] = test system: HAP1 MTAP-deleted cell line; test: Viability assay, MTAP-deleted cell line; format: cell-based; settings: Homo sapiens
Description: Table 1 additionally indicates IC50 values in a viability assay for the MTAP-deleted cell line (column 10), indicating the effect of treatment with compound on cell survival.

[6] = HAP1, SDMA in-cell western, HAP1 MTAP-intact, read-out: MTAP HAP1 intact IC50
[7] = HAP1, SDMA in-cell western, HAP1 MTAP-deleted, read-out: HAP 1 MTAP deleted IC50
[8] = IC50 ratio HAP1 MTAP-intact / HAP1 MTAP-deleted
[9] = PRMT5, SAM as cofactor, read-out: SAM IC50
[10] = PRMT5, MTA as cofactor, read-out: MTA IC50
[11] = HAP1, read-out: MTAP HAP1 intact IC50
[12] = HAP1, read-out: HAP1 MTAP deleted IC50
[13] = HAP1, read-out: HAP1 MTAP deleted viability
[14] = IC50 ratio HAP1 MTAP-intact vs HAP1 MTAP-deleted
[15] = HAP1, viability IC50, MTAP-deleted cell line, read-out: HAP1 MTAP deleted viability

T1 sequence (O14744 whole entry): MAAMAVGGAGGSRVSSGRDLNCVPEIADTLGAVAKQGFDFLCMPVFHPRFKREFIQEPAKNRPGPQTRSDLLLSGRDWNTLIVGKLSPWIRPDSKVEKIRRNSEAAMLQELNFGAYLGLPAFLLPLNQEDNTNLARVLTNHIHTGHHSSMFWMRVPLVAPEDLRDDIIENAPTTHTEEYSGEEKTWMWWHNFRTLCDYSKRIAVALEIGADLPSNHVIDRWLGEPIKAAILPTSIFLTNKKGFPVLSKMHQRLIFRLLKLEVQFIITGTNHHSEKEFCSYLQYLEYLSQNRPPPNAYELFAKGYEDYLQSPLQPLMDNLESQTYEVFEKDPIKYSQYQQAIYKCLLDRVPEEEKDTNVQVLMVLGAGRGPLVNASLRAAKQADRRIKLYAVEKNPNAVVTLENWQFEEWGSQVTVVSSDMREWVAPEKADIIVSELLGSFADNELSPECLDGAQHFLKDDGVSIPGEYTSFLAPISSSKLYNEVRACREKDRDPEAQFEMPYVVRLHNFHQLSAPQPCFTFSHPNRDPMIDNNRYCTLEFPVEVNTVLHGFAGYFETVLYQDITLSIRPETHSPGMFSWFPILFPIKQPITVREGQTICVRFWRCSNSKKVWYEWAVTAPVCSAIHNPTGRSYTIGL
T1 sequence (Q9BQA1 whole entry partner): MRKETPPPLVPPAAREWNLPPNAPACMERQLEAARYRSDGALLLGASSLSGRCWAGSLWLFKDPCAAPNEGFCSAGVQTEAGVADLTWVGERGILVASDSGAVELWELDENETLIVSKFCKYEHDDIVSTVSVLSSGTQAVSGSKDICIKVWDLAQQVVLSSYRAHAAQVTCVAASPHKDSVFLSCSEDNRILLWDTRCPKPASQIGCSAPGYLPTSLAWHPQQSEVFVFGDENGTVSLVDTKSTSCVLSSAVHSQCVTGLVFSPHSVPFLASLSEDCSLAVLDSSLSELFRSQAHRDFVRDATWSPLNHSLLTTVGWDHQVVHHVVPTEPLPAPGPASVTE

SMILES | IC50 [1, 11] [nM] | IC50 [2, 12] [nM] | IC50 [5, 13] [nM] | other results
CCc1cc(NC(=O)C(=O)N2C[C@@H](C)CC[C@@H]2c2ccc(N3CCN(C)CC3)c(Cl)c2)cnc1N (racemic) [Compound 1265, N-(6-Amino-5-ethyl-3-pyridyl)-2-oxo-2-[rac-(2R,5S)-2-[3-chloro-4-(4-methylpiperazin-1-yl)phenyl]-5-methyl-1-piperidyl]acetamide] | – | – | – | IC50 [1, 6]: 100 to 1000 nM; IC50 [2, 7]: < 100 nM; MTAP intact/deleted ratio [2, 8]: A (an IC50 ratio greater than or equal to 10 fold); IC50 (PRMT5 [3]; [9]): 50 to 500 nM; IC50 (PRMT5 [4]; [10]): 50 to 500 nM; IC50 ([5]; HAP1, viability, HAP1 MTAP-deleted cell line, read-out: HAP1 MTAP deleted viability): < 1000 nM
Cc1cc(NC(=O)C(=O)N2C[C@H](C)CC[C@H]2c2ccc3sc(CN(C)C)nc3c2)cnc1N (single isomer, unassigned) [Compound 1122] | < 100 | < 100 | < 1000 | –
COc1ncc(NC(=O)C(=O)N2C[C@@H](C)CC[C@@H]2c2ccc3sc(C4CCN(C)CC4)nc3c2)cc1C(N)=O (single isomer, unassigned) [Compound 1126] | < 100 | < 100 | < 1000 | –
C[C@@H]1CC[C@@H](c2ccc3sc(C4CCN(C)CC4)nc3c2)N(C(=O)C(=O)Nc2cnc(N)c(C3CC3)c2)C1 (single isomer, unassigned) [Compound 1201] | > 1000 | 100 to 1000 | < 1000 | –
CO[C@H]1C[C@H](c2ccc3scnc3c2)N(C(=O)C(=O)Nc2cncc(C(N)=O)c2)C[C@H]1C (single isomer, unassigned) [Compound 1221] | – | – | – | IC50 [1, 6]: > 1000 nM; IC50 ([2]; HAP1, SDMA in-cell western, HAP1 MTAP-deleted, read-out: HAP1 MTAP deleted IC50): 100 to 1000 nM; MTAP intact/deleted ratio [2, 14]: A (an IC50 ratio greater than or equal to 10 fold); IC50 (PRMT5 [3]; [9]): > 500 nM; IC50 (PRMT5 [4]; [10]): 50 to 500 nM; IC50 ([5]; HAP1, viability assay, MTAP-deleted cell line, read-out: HAP1 MTAP deleted viability): 1000 to 10000 nM
C[C@H]1CC[C@H](c2ccc3sc(C4CCN(C)CC4)nc3c2)N(C(=O)C(=O)Nc2cnc(N)c(C3CC3)c2)C1 (single isomer, unassigned) [Compound 1222] | < 100 | < 100 | < 1000 | –
Cc1cc(NC(=O)C(=O)N2C[C@@H](C)CC[C@@H]2c2ccc3sc(CCN(C)C)nc3c2)cnc1N (single isomer, unassigned) [Compound 1279] | < 100 | < 100 | < 1000 | –
Cc1cc(NC(=O)C(=O)N2C[C@H](C)CC[C@H]2c2ccc3sc(C4CCN(C)CC4)nc3c2)cnc1N (single isomer, unassigned) [Compound 1293] | 100 to 1000 | < 100 | < 1000 | –
Cc1cc(NC(=O)C(=O)N2C[C@@H](C)CC[C@@H]2c2ccc3sc(C4CCN(C)CC4)nc3c2)cnc1N (single isomer, unassigned) [Compound 1314] | < 100 | < 100 | < 1000 | –
C[C@H]1CC[C@H](c2ccc3sc(C4CCN(C)CC4)nc3c2)N(C(=O)C(=O)Nc2cnc(N)c(C3COC3)c2)C1 (single isomer, unassigned) [Compound 1334] | < 100 | < 100 | < 1000 | –
Cc1cc(NC(=O)C(=O)N2C[C@H](C)CC[C@H]2c2ccc3cn[nH]c3c2)cnc1N (stereo in doubt) [Compound 613, N-(6-amino-5-methyl-3-pyridyl)-2-[(2S,5R)-2-(1H-indazol-6-yl)-5-methyl-1-piperidyl]-2-oxo-acetamide] | – | – | – | IC50 [1, 6]: > 1000 nM; IC50 [2, 7]: > 1000 nM; MTAP intact/deleted ratio [2, 8]: C (an IC50 ratio of less than 3 fold); IC50 [5, 15]: > 10000 nM
Cc1cc(NC(=O)C(=O)N2C[C@@H](C)CC[C@@H]2c2ccc3c[nH]nc3c2)cnc1N (stereo in doubt) [Compound 636, N-(6-amino-5-methyl-3-pyridyl)-2-[(2R,5S)-2-(1H-indazol-6-yl)-5-methyl-1-piperidyl]-2-oxo-acetamide] | – | – | – | IC50 [1, 6]: 100 to 1000 nM; IC50 [2, 7]: < 100 nM; MTAP intact/deleted ratio [2, 8]: A (an IC50 ratio greater than or equal to 10 fold); IC50 [5, 15]: < 1000 nM
CCc1cc(NC(=O)C(=O)N2C[C@H](C)CC[C@H]2c2ccc3scnc3c2)cnc1N (stereo in doubt) [Compound 694, N-(6-amino-5-ethyl-3-pyridyl)-2-[(2S,5R)-2-(1,3-benzothiazol-5-yl)-5-methyl-1-piperidyl]-2-oxo-acetamide] | > 1000 | 100 to 1000 | 1000 to 10000 | –
CCc1cc(NC(=O)C(=O)N2C[C@@H](C)CC[C@@H]2c2ccc3scnc3c2)cnc1N (stereo in doubt) [Compound 701, N-(6-amino-5-ethyl-3-pyridyl)-2-[(2R,5S)-2-(1,3-benzothiazol-5-yl)-5-methyl-1-piperidyl]-2-oxo-acetamide] | 100 to 1000 | < 100 | < 1000 | –
Cc1cc(NC(=O)C(=O)N2CCCCC2c2ccccc2)cnc1C (centres unmarked) [Compound 139, N-(5,6-dimethylpyridin-3-yl)-2-oxo-2-(2-phenylpiperidin-1-yl)acetamide] | > 1000 | > 1000 | > 10000 | –
Cc1cc(NC(=O)C(=O)N2C[C@@H](C)CC[C@@H]2c2ccc3scnc3c2)cnc1N [Compound 616, N-(6-amino-5-methyl-3-pyridyl)-2-[(2R,5S)-2-(1,3-benzothiazol-5-yl)-5-methyl-1-piperidyl]-2-oxo-acetamide] | 100 to 1000 | < 100 | < 1000 | –
CCc1cc(NC(=O)C(=O)N2C[C@@H](C)CC[C@@H]2c2ccc3sc(C4(O)CCN(C)CC4)nc3c2)cnc1N [Compound 1107] | < 100 | < 100 | < 1000 | MTAP intact/deleted ratio [2, 14]: B (an IC50 ratio greater than or equal to 3 fold but lower than 10 fold); IC50 (PRMT5 [3]; SAM IC50, PRMT5, SAM as cofactor): < 50 nM; IC50 (PRMT5 [4]; MTA IC50, PRMT5, MTA as cofactor): < 50 nM
Cc1cc(NC(=O)C(=O)N2C[C@@H](C)CC[C@@H]2c2ccc3sc(N4CCN(C)CC4)nc3c2)cnc1N [Compound 1158, N-(6-amino-5-methylpyridin-3-yl)-2-((2R,5S)-5-methyl-2-(2-(4-methylpiperazin-1-yl)benzo[d]thiazol-5-yl)piperidin-1-yl)-2-oxoacetamide] | < 100 | < 100 | < 1000 | –
[2H]c1nc2cc([C@H]3CC[C@H](C)CN3C(=O)C(=O)Nc3cnc(N)c(C)c3)ccc2s1 [Compound 1177] | 100 to 1000 | < 100 | < 1000 | –
C[C@H]1CC[C@H](c2ccc3scnc3c2)N(C(=O)C(=O)Nc2cnc(N)c(C3CC3)c2)C1 [Compound 1319, N-(6-amino-5-cyclopropyl-3-pyridyl)-2-[(2R,5S)-2-(1,3-benzothiazol-5-yl)-5-methyl-1-piperidyl]-2-oxo-acetamide] | 100 to 1000 | < 100 | < 1000 | –
Cc1cc(NC(=O)C(=O)N2C[C@@H](C)CC[C@@H]2c2ccc3sc([C@H]4CCN(C)C(=O)C4)nc3c2)cnc1N [Compound 1333, N-(6-amino-5-methylpyridin-3-yl)-2-((2R,5S)-5-methyl-2-(2-(1-methyl-2-oxopiperidin-4-yl)benzo[d]thiazol-5-yl)piperidin-1-yl)-2-oxoacetamide] | < 100 | < 100 | < 1000 | –
C[C@H]1CC[C@H](c2ccc3scnc3c2)N(C(=O)C(=O)Nc2cnc(N)c(C3COC3)c2)C1 [Compound 1356, N-[6-amino-5-(oxetan-3-yl)-3-pyridyl]-2-[(2R,5S)-2-(1,3-benzothiazol-5-yl)-5-methyl-1-piperidyl]-2-oxo-acetamide] | 100 to 1000 | < 100 | < 1000 | –
